Source: PubChem BioAssay (NCI)
“And” between values parts separate entries of the source, which are not always exact repeats. Identical values can stand only once.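 Grown in 96-well plates, cells were treated for 48 hours with each compound at five concentrations. Insufficient inhibition: endpoint recorded as highest concentration tested. Here, GI50 denotes the concentration required for 50% inhibition of growth. TGI: concentration producing complete growth inhibition.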

How the values were obtained:
Assay in all cases: NCI-60 cell line screen, 48 h
T-47D breast = system: T-47D breast
SNB-75 CNS = system: SNB-75 CNS
K-562 leukemia = system: K-562 leukemia
HOP-62 NSCLC = system: HOP-62 NSCLC
PC-3 prostate = system: PC-3 prostate
HT29 colon = system: HT29 colon
SF-539 CNS = system: SF-539 CNS
MCF7 breast = system: MCF7 breast
MALME-3M melanoma = system: MALME-3M melanoma
NCI-H522 lung = system: NCI-H522 lung

SMILES | GI50 (T-47D breast) | TGI (T-47D breast) | GI50 (SNB-75 CNS) | TGI (SNB-75 CNS) | GI50 (K-562 leukemia) | TGI (K-562 leukemia) | GI50 (HOP-62 NSCLC) | TGI (HOP-62 NSCLC) | GI50 (PC-3 prostate) | TGI (PC-3 prostate) | GI50 (HT29 colon) | TGI (HT29 colon) | GI50 (SF-539 CNS) | TGI (SF-539 CNS) | GI50 (MCF7 breast) | TGI (MCF7 breast) | GI50 (MALME-3M melanoma) | TGI (MALME-3M melanoma) | GI50 (NCI-H522 lung) | TGI (NCI-H522 lung)
O=C(CN1CCN(c2ccc(Cl)cc2)CC1)N1CCN(c2nnc(-c3ccc(Cl)cc3)c(-c3ccc(Cl)cc3)n2)CC1 | 10.8 µM | > 100 µM | 15.1 µM | 35.5 µM | > 100 µM | > 100 µM | 40.9 µM | > 100 µM | 57.5 µM | > 100 µM | 9.85 µM | > 100 µM | 19.6 µM | 69.9 µM | 8.9 µM | > 100 µM | 39.9 µM | > 100 µM | 18.2 µM | 46.9 µM
CCN1C(=O)NC(=O)C(C)(N2C(=O)c3c(F)c(F)c(F)c(F)c3C2=O)C1=O (stereo not given) | 3.42 µM | 11.9 µM | 2.96 µM | 11.1 µM | 1.66 µM | 3.71 µM | 5.97 µM | 18.3 µM | 3.09 µM | 10.5 µM | 2.4 µM | 8.58 µM | 2.89 µM | 8.02 µM | 2.77 µM | 13.5 µM | 2.06 µM | 5.48 µM | 1.66 µM | 3.97 µM
CN(C)c1ncnc2c1nnn2C1OC(CO)C(O)C1O (stereo not given) | 0.141 µM | 2.81 µM | 0.106 µM | > 100 µM | 0.0973 µM | > 100 µM | 0.405 µM | > 100 µM | 0.271 µM | > 45.5 µM | 0.128 µM | > 24.7 µM | 0.503 µM | > 90.6 µM | 0.216 µM | > 23.4 µM | 0.332 µM | 63.5 µM | 0.272 µM | 1.41 µM
Cn1cc(C2=C(c3cccnc3)C(=O)NC2=O)c2ccccc21 | 14.6 µM | > 25 µM | 0.882 µM | > 25 µM | > 25 µM | > 25 µM | > 21.9 µM | > 25 µM | 17.1 µM | > 25 µM | > 25 µM | > 25 µM | 11.4 µM | > 25 µM | 8.45 µM | > 25 µM | > 25 µM | > 25 µM | > 25 µM | > 25 µM
C=CC(C)(O)/C=C/C=C(\C)C(CC1OC1(C)C)OC(=O)/C(C)=C\C (stereo not given) | – | > 100 µM | – | > 100 µM | – | > 100 µM | – | > 100 µM | – | > 100 µM | – | > 100 µM | – | > 100 µM | – | > 100 µM | – | > 100 µM | – | > 100 µM
CN=C(NC#N)NCCSCc1nc[nH]c1C | – | > 100 µM | – | 79.3 µM | – | > 100 µM | – | > 100 µM | – | > 100 µM | – | > 100 µM | – | > 100 µM | – | > 100 µM | – | > 100 µM | – | > 100 µM
CC(C)(C)c1[nH]cnc1/C=c1\[nH]c(=O)/c(=C/c2ccccc2)[nH]c1=O | < 0.0592 µM | 30.9 µM | < 0.01 µM | 44 µM | < 0.01 µM | > 100 µM | < 0.01 µM | 25.8 µM | < 0.01 µM | 36.1 µM | < 0.01 µM | 9.44 µM | < 0.01 µM | 0.0321 µM | 0.0203 µM | 17 µM | < 0.105 µM | 29.8 µM | < 0.01 µM | 0.159 µM
Oc1c(CN2CCCC2)cc(COCc2ccc(Br)cc2)c2cccnc12 | 0.501 µM | 3.08 µM | 1.33 µM | 11.7 µM | 0.397 µM | 10.3 µM | 0.362 µM | 2.3 µM | 1.01 µM | 5.97 µM | 3.53 µM | 13.2 µM | 1.11 µM | 2.85 µM | 0.316 µM | 1.37 µM | 1.44 µM | 5.18 µM | 0.297 µM | 1.17 µM
COc1ccc(C2=NN(C(=O)c3cc(OC)c(OC)c(OC)c3)C(c3ccc(Cl)cc3)C2)cc1OC (stereo not given) | 3.59 µM | > 100 µM | 0.746 µM | 15.2 µM | 0.777 µM | > 100 µM | 5.24 µM | 32 µM | 1.07 µM | > 100 µM | 1.4 µM | > 100 µM | 2.06 µM | > 82.8 µM | 0.398 µM | 14.7 µM | 3.95 µM | 98.9 µM | 1.48 µM | > 24.3 µM
CN1CCN(c2ccc3nc(-c4c(N)c5c(F)cccc5[nH]c4=O)[nH]c3c2)CC1 | 4.04 µM and 12 µM | 10.1 µM and > 6.23 µM and 31.9 µM | 0.695 µM and 0.399 µM and 0.994 µM | 2.64 µM and 8.04 µM and 5.68 µM | 0.598 µM and 0.528 µM and 0.932 µM | 2.62 µM and 2.32 µM and 4.91 µM | 1.08 µM and 0.829 µM and 1.58 µM | 2.7 µM and > 3.73 µM and 8.18 µM | 1.16 µM and 1.02 µM and 1.73 µM | 7.1 µM and > 7.42 µM and 8.59 µM | 0.909 µM and 0.663 µM and 1.43 µM | 2.89 µM and > 5.42 µM and 11.2 µM | 0.566 µM and 0.338 µM and 0.487 µM | 1.96 µM and 1.21 µM and 1.75 µM | 0.875 µM and 0.71 µM and 1.21 µM | 2.78 µM and > 4.82 µM and 6.76 µM | 0.901 µM and 0.498 µM and 0.547 µM | 2.46 µM and 1.75 µM and 1.97 µM | 0.999 µM and 0.398 µM and 2.29 µM | 2.87 µM and > 2.3 µM and 11.7 µM
Cc1ccc(C)c(NC(=O)NCc2ccc(Cl)cc2)c1 | – | > 100 µM | – | 6.26 µM | – | 98.6 µM | – | 37 µM | – | > 100 µM | – | > 100 µM | – | > 100 µM | – | > 100 µM | – | > 87.9 µM | – | 97.3 µM
COC(=O)[C@]12CC[C@@H](C)[C@H](C)[C@@H]1C1=CC[C@@H]3[C@@]4(C)C(C=O)=C[C@@](C)(COC(=O)c5ccco5)[C@@H]4C(=O)C[C@@]3(C)[C@]1(C)CC2 | 3.71 µM | 50.6 µM | 4.24 µM | > 100 µM | 3.95 µM | > 100 µM | 18.9 µM | > 100 µM | 3.66 µM | > 100 µM | 7.92 µM | > 100 µM | 23 µM | > 100 µM | 4.07 µM | 44.2 µM | 0.0359 µM | 0.256 µM | 7.63 µM | > 100 µM
